pIC50: −log10 of the molar value.
Test: Inhibition of CFD in 10% human serum assessed as reduction in alternate complement pathway-mediated hemolysis incubated for 1 hr

Q: With `C[C@H](NC(=O)[C@@H]1C[C@H]2C[C@H]2N1C(=O)Cn1nc(C(N)=O)c2cccnc21)c1cccc(Cl)c1F` as the compound, how does the pIC50 read?
A: 8.22

Source: BindingDB's records for doi:10.1021/acs.jmedchem.9b01033 (Taipei Medical University, 2020)
